In patent US20110015119A1, “NOVEL SEMI-SYNTHETIC GLYCOPEPTIDES AS ANTIBACTERIAL AGENTS” (LEAD THERAPEUTICS, INC., priority 2009, published 2011):
≈ marks a conversion by molar mass, not a printed value. Where two headings read alike, the source gives them in different places.

How the values were obtained:
Assay type in all cases: cell-based
[1] = system: Streptococcus pneumoniae 1195 (ATCC 49619); assay: MIC by broth microdilution, SPNE 1195
Protocol: (§1) Antibacterial activity in vitro is investigated by broth microdilution method in Meuller-Hinton broth as recommended by NCCLS. All strains tested are clinical isolates either sensitive or resistant to natural glycopeptides. MIC values were determined using the CLSI-recommended broth microdilution procedure (Clinical and Laboratory Standards Institute, Methods for Dilution Antimicrobial Susceptibility Tests for Bacteria That Grow Aerobically; Approved Standard-Seventh Edition.). Automated liquid handlers (Multidrop 384, Labsystems, Helsinki, Finland; Biomek 2000 and Multimek 96, Beckman Coulter, Fullerton Calif.) were used to conduct serial dilutions and liquid transfers. The MIC value for vancomycin is given for comparison. The abbreviations for organisms tested are as follow: SA 100—Staphylococcus aureus 100 (ATCC 29213); SA 757—Staphylococcus aureus 757 (MRSA); SA 2012—Staphylococcus aureus 2012 (VISA); SE 835—Staphylococcus epidermidis 835; SE 831—Staphylococcus epidermidis 831 (MRSE); EFc 101—Enterococcus faecalis 101 (ATCC 29212); EFc 848—Enterococcus faecalis 848 (VRE, Van A); EFcm 800—Enterococcus faecium 800; EFcm 752—Enterococcus faecium 752 (VRE, Van A); SPNE 1195—Streptococcus pneumoniae 1195 (ATCC 49619); SPY 712—Streptococcus pyogenes 712.

[2] = system: Staphylococcus aureus 757 (MRSA); assay: MIC by broth microdilution, SA 757; settings: read-out: MIC SA 757
Protocol: as §1

[3] = system: Streptococcus pyogenes 712; assay: MIC by broth microdilution, SPY 712
Protocol: as §1

[4] = system: Staphylococcus epidermidis 835; assay: MIC by broth microdilution, SE 835
Protocol: as §1

[5] = system: Enterococcus faecium 752 (VRE, Van A); assay: MIC by broth microdilution, EFcm 752; settings: class symbols
Protocol: as §1

[6] = system: Staphylococcus epidermidis 831 (MRSE); assay: MIC by broth microdilution, SE 831; settings: read-out: MIC SE 831
Protocol: as §1

[7] = system: Enterococcus faecium 800; assay: MIC by broth microdilution, EFcm 800
Protocol: as §1

[8] = system: Staphylococcus aureus 2012 (VISA); assay: MIC by broth microdilution, SA 2012; settings: class symbols
Protocol: as §1

[9] = system: Staphylococcus aureus 100 (ATCC 29213); assay: MIC by broth microdilution, SA 100
Protocol: as §1

[10] = system: Enterococcus faecalis 848 (VRE, Van A); assay: MIC by broth microdilution, EFc 848; settings: class symbols
Protocol: as §1

[11] = system: Enterococcus faecalis 101 (ATCC 29212); assay: MIC by broth microdilution, EFc 101; settings: class symbols
Protocol: as §1

[12] = ATCC49619, Streptococcus pneumoniae 1195 (ATCC 49619), class symbols, read-out: MIC S PNE 1195
[13] = Staphylococcus aureus 757 (MRSA), class symbols
[14] = Streptococcus pyogenes 712, class symbols, read-out: MIC S PYO 712
[15] = Staphylococcus epidermidis 835, class symbols, read-out: MIC SE 835
[16] = Enterococcus faecium 752 (VRE, Van A), read-out: MIC E FCM 752
[17] = Staphylococcus epidermidis 831 (MRSE), class symbols
[18] = Enterococcus faecium 800, class symbols, read-out: MIC E FCM 800
[19] = Staphylococcus aureus 2012 (VISA), read-out: MIC SA 2012
[20] = ATCC29213, Staphylococcus aureus 100 (ATCC 29213), class symbols, read-out: MIC SA 100
[21] = Enterococcus faecalis 848 (VRE, Van A), read-out: MIC E FC 848
[22] = ATCC29212, Enterococcus faecalis 101 (ATCC 29212), read-out: MIC E FC 101
[23] = Streptococcus pneumoniae, ATCC49619, read-out: MIC S PNE 1195
[24] = Streptococcus pyogenes, 712, read-out: MIC S PYO 712
[25] = Staphylococcus epidermidis, 835, read-out: MIC SE 835
[26] = Staphylococcus epidermidis, MRSE
[27] = Enterococcus faecium, 800, read-out: MIC E FCM 800
[28] = Staphylococcus aureus, ATCC29213, read-out: MIC SA 100
[29] = Enterococcus faecalis, ATCC29212, read-out: MIC E FC 101, Enterococcus faecalis 101 (ATCC 29212)

| Compound | MIC [1, 12] [µg/mL] | MIC [2, 13] [µg/mL] | MIC [3, 14] [µg/mL] | MIC [4, 15] [µg/mL] | MIC [5, 16] [µg/mL] | MIC [6, 17] [µg/mL] | MIC [7, 18] [µg/mL] | MIC [8, 19] [µg/mL] | MIC [9, 20] [µg/mL] | MIC [10, 21] [µg/mL] | MIC [11, 22] [µg/mL] | MIC [1, 23] [µg/mL] | MIC ([2]; Staphylococcus aureus, MRSA) [µg/mL] | MIC [3, 24] [µg/mL] | MIC [4, 25] [µg/mL] | MIC [6, 26] [µg/mL] | MIC [7, 27] [µg/mL] | MIC [9, 28] [µg/mL] | MIC [11, 29] [µg/mL] | other results |
| --- | --- | --- | --- | --- | --- | --- | --- | --- | --- | --- | --- | --- | --- | --- | --- | --- | --- | --- | --- | --- |
| CCCCCCc1ccc(S(=O)(=O)NCCCCCCNCc2c(O)cc3c(c2O)-c2cc(ccc2O)[C@H]2NC(=O)[C@@H]4NC(=O)[C@H](CC(N)=O)NC(=O)[C@H](NC(=O)[C@@H](CC(C)C)NC)[C@H](O)c5ccc(c(Cl)c5)Oc5cc4cc(c5O[C@@H]4O[C@H](CO)[C@@H](O)[C@H](O)[C@H]4O[C@H]4C[C@](C)(NC(=O)CCCCCN)[C@H](O)[C@H](C)O4)Oc4ccc(cc4Cl)[C@@H](O)[C@H](NC2=O)C(=O)N[C@@H]3C(=O)O)cc1 (atropisomer, axis not shown) [Compound 344] | 0.01 to 0.5 (≈ 0.00522 to 0.261 µM) | 0.01 to 0.5 (≈ 0.00522 to 0.261 µM) | 0.01 to 0.5 (≈ 0.00522 to 0.261 µM) | 0.01 to 0.5 (≈ 0.00522 to 0.261 µM) | 1 to 2 (≈ 0.522 to 1.04 µM) | 0.01 to 0.5 (≈ 0.00522 to 0.261 µM) | 0.01 to 0.5 (≈ 0.00522 to 0.261 µM) | 0.01 to 0.5 (≈ 0.00522 to 0.261 µM) | 0.01 to 0.5 (≈ 0.00522 to 0.261 µM) | 4 to 8 (≈ 2.09 to 4.18 µM) | 0.01 to 0.5 (≈ 0.00522 to 0.261 µM) | – | – | – | – | – | – | – | – | – |
| CCCCCCCOc1ccc(S(=O)(=O)NCCCCCCNC(=O)Oc2cc(O)c3c(c2)[C@@H](C(=O)O)NC(=O)[C@H]2NC(=O)[C@H](NC(=O)[C@@H]4NC(=O)[C@H](CC(N)=O)NC(=O)[C@H](NC(=O)[C@@H](CC(C)C)NC)[C@H](O)c5ccc(c(Cl)c5)Oc5cc4cc(c5O[C@@H]4O[C@H](CO)[C@@H](O)[C@H](O)[C@H]4O[C@H]4C[C@](C)(N)[C@H](O)[C@H](C)O4)Oc4ccc(cc4Cl)[C@H]2O)c2ccc(O)c-3c2)cc1 (atropisomer, axis not shown) [Compound 355] | – | – | – | – | – | – | – | – | – | – | – | 0.01 to 0.5 (≈ 0.00542 to 0.271 µM) | 0.01 to 0.5 (≈ 0.00542 to 0.271 µM) | 0.01 to 0.5 (≈ 0.00542 to 0.271 µM) | 0.01 to 0.5 (≈ 0.00542 to 0.271 µM) | 0.01 to 0.5 (≈ 0.00542 to 0.271 µM) | 0.01 to 0.5 (≈ 0.00542 to 0.271 µM) | 0.01 to 0.5 (≈ 0.00542 to 0.271 µM) | 0.01 to 0.5 (≈ 0.00542 to 0.271 µM) | MIC ([5]; Enterococcus faecium, VRE, read-out: MIC E FCM 752, Enterococcus faecium 752 (VRE, Van A)): 0.01 to 0.5 µg/mL (≈ 0.00542 to 0.271 µM); MIC ([8]; Staphylococcus aureus, VISA, read-out: MIC SA 2012, Staphylococcus aureus 2012 (VISA)): 0.5 to 1 µg/mL (≈ 0.271 to 0.542 µM); MIC ([10]; Enterococcus faecalis, VRE, read-out: MIC E FC 848, Enterococcus faecalis 848 (VRE, Van A)): 1 to 2 µg/mL (≈ 0.542 to 1.08 µM) |
| CCCCCCc1ccc(NC(=O)NCCCCCCNCc2c(O)cc3c(c2O)-c2cc(ccc2O)[C@H]2NC(=O)[C@@H]4NC(=O)[C@H](CC(N)=O)NC(=O)[C@H](NC(=O)[C@@H](CC(C)C)NC)[C@H](O)c5ccc(c(Cl)c5)Oc5cc4cc(c5O[C@@H]4O[C@H](CO)[C@@H](O)[C@H](O)[C@H]4O[C@H]4C[C@](C)(NC(=O)NC5CC5)[C@H](O)[C@H](C)O4)Oc4ccc(cc4Cl)[C@@H](O)[C@H](NC2=O)C(=O)N[C@@H]3C(=O)O)cc1 (atropisomer, axis not shown) [Compound 368] | 0.01 to 0.5 (≈ 0.00537 to 0.268 µM) | 0.01 to 0.5 (≈ 0.00537 to 0.268 µM) | 0.01 to 0.5 (≈ 0.00537 to 0.268 µM) | 0.01 to 0.5 (≈ 0.00537 to 0.268 µM) | 2 to 4 (≈ 1.07 to 2.15 µM) | 0.01 to 0.5 (≈ 0.00537 to 0.268 µM) | 0.01 to 0.5 (≈ 0.00537 to 0.268 µM) | 0.5 to 1 (≈ 0.268 to 0.537 µM) | 0.01 to 0.5 (≈ 0.00537 to 0.268 µM) | > 16 | 0.01 to 0.5 (≈ 0.00537 to 0.268 µM) | – | – | – | – | – | – | – | – | – |
| CCCCCOc1ccc(CCNC(=O)Oc2cc(O)c3c(c2)[C@@H](C(=O)NC2C4CC5CC(C4)CC2C5)NC(=O)[C@H]2NC(=O)[C@H](NC(=O)[C@@H]4NC(=O)[C@H](CC(N)=O)NC(=O)[C@H](NC(=O)[C@@H](CC(C)C)NC)[C@H](O)c5ccc(c(Cl)c5)Oc5cc4cc(c5O[C@@H]4O[C@H](CO)[C@@H](O)[C@H](O)[C@H]4O[C@H]4C[C@](C)(N)[C@H](O)[C@H](C)O4)Oc4ccc(cc4Cl)[C@H]2O)c2ccc(O)c-3c2)cc1 (some centres unmarked) [Compound 338] | – | – | – | – | – | – | – | – | – | – | – | 0.01 to 0.5 (≈ 0.00551 to 0.275 µM) | 0.01 to 0.5 (≈ 0.00551 to 0.275 µM) | 0.01 to 0.5 (≈ 0.00551 to 0.275 µM) | 0.01 to 0.5 (≈ 0.00551 to 0.275 µM) | 0.01 to 0.5 (≈ 0.00551 to 0.275 µM) | 0.01 to 0.5 (≈ 0.00551 to 0.275 µM) | 0.01 to 0.5 (≈ 0.00551 to 0.275 µM) | 0.01 to 0.5 (≈ 0.00551 to 0.275 µM) | – |
